These results are taken from ChEMBL document CHEMBL4811250, “Discovery and Optimization of 2H-1λ2-Pyridin-2-one Inhibitors of Mutant Isocitrate Dehydrogenase 1 for the Treatment of Cancer” (J Med Chem, 2021).

Assay [1] addresses Isocitrate dehydrogenase [NADP] cytoplasmic (Homo sapiens, UniProt O75874, R132H). The assay is described as follows: Inhibition of IDH1 R132H mutant (unknown origin) assessed as reduction in NADPH consumption using alpha-KG as substrate incubated for 5 mins by diaphorase/resazurin-coupled system.
Assay [2] addresses Isocitrate dehydrogenase [NADP] cytoplasmic (Homo sapiens, UniProt O75874, R132C). Put plainly: Inhibition of IDH1 R132C mutant (unknown origin) assessed as reduction in NADPH consumption using alpha-KG as substrate incubated for 5 mins by diaphorase/resazurin-coupled system.
Assay [3] concerns Isocitrate dehydrogenase [NADP] cytoplasmic (Homo sapiens), O75874 [R132H]. The assay is described as follows: Inhibition of IDH1 R132H mutant (unknown origin) assessed as reduction in NADPH consumption using alpha-KG as substrate at 38 uM incubated for 5 mins by diaphorase/resazurin-coupled system relative to control.
Isocitrate dehydrogenase [NADP] cytoplasmic (Homo sapiens), O75874 [R132H], sequence (O75874 whole entry R132H): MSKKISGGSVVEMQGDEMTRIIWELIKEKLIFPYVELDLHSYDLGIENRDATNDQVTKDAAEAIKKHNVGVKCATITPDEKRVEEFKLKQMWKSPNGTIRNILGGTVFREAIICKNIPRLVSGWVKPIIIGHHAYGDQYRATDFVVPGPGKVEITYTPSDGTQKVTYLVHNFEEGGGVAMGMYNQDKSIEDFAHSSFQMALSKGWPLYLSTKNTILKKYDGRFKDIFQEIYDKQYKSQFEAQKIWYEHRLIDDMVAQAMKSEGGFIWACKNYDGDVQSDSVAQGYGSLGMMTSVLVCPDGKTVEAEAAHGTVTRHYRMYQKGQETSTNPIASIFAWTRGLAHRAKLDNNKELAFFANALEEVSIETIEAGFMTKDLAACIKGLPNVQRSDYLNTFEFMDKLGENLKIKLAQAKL
Assay [4] has as its system Isocitrate dehydrogenase [NADP] cytoplasmic (Homo sapiens), O75874 [R132C]. The assay is described as follows: Inhibition of IDH1 R132C mutant (unknown origin) assessed as reduction in NADPH consumption using alpha-KG as substrate at 38 uM incubated for 5 mins by diaphorase/resazurin-coupled system relative to control.

Isocitrate dehydrogenase [NADP] cytoplasmic (Homo sapiens), O75874 [R132C], sequence (O75874 whole entry R132C): as the sequence (O75874 whole entry R132H) above, with H132C counted along it
Isocitrate dehydrogenase [NADP] cytoplasmic (Homo sapiens, UniProt O75874, R132H), sequence (O75874 2-414 R132H limits assumed): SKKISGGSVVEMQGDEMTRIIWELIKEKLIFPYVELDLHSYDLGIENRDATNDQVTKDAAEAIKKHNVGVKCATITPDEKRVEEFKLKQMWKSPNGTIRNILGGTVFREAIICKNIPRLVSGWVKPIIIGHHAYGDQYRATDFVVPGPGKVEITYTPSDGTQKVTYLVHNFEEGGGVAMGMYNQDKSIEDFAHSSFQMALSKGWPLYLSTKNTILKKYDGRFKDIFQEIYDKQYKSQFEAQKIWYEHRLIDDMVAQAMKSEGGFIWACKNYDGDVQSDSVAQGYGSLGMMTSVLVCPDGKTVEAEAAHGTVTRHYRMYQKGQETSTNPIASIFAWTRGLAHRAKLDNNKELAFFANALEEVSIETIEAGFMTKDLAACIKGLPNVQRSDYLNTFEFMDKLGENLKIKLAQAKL
Isocitrate dehydrogenase [NADP] cytoplasmic (Homo sapiens, UniProt O75874, R132C), sequence (O75874 2-414 R132C limits assumed): as the sequence (O75874 2-414 R132H limits assumed) above, with H131C counted along it

As to `CCc1cccc(CC)c1-n1c(C=C(C)C)c(C(=O)N2CCNC(C(N)=O)C2)cc(-c2nc(-c3ccc(Cl)cc3)cs2)c1=O` (centres undefined), the IC50 worked out at 94 nM in assay [1] and 0.042 µM in assay [2].
On the same counts, the results for `CCc1cccc(CC)c1-n1c(C=C(C)C)c(C(=O)N2CCNC(CO)C2)cc(-c2nc(-c3ccc(Cl)cc3)cs2)c1=O` (centres undefined) are 49 nM and 0.06 µM.
The matching figures for `COc1ccc(-n2c3c(cc(-c4nc(-c5ccc(Cl)cc5)cs4)c2=O)C(=O)CC(C)(C)C3)c(OC)c1`: over 38000 nM and over 38 µM.
`COc1ccccc1-n1c2c(cc(-c3nc(-c4ccc(Cl)cc4)cs3)c1=O)C(=O)CC(C)(C)C2`: the IC50 in assay [1] came out at 2400 nM. Also, the inhibition in assay [3] was determined as 76%; in assay [4], 65%.
Regarding `CC1(C)CC(=O)c2cc(-c3nc(-c4ccc(Cl)cc4)cs3)c(=O)n(-c3ccccc3Cl)c2C1`, in assay [1], the 50% inhibitory concentration (IC50) is 1300 nM. Also, the inhibition in assay [3] came out at 83%; in assay [4], 70%.
As for `CC1(C)CC(=O)c2cc(-c3nc(-c4ccc(Cl)cc4)cs3)c(=O)n(-c3ccccc3)c2C1`, the results for the inhibition in assay [3] and in assay [4] were 47% and 38%, respectively.
The matching figures for `CNc1ccccc1-n1c2c(cc(-c3nc(-c4ccc(Cl)cc4)cs3)c1=O)C(=O)CC(C)(C)C2`: 59% and 43%.
In the case of `COc1ccncc1-n1c2c(cc(-c3nc(-c4ccc(Cl)cc4)cs3)c1=O)C(=O)CC(C)(C)C2`, the IC50 is over 38000 nM in assay [1] and over 38 µM in assay [2].
On the same counts, the results for `COc1ccc(OC)c(-n2c3c(cc(-c4nc5cc(Cl)ccc5s4)c2=O)C(=O)CC(C)(C)C3)c1` are over 38000 nM and over 38 µM.
For `CCc1cccc(CC)c1-n1c(C)c(C(=O)NCc2ccccc2)cc(-c2nc(-c3ccc(Cl)cc3)cs2)c1=O`, the IC50 in assay [1] was over 38000 nM. Also, in assay [4], the inhibition amounted to 41%.
`CCOC(=O)c1cc(-c2nc(-c3ccc(Cl)cc3)cs2)c(=O)n(-c2c(CC)cccc2CC)c1-c1ccccc1`: the IC50 in assay [1] is over 38000 nM; in assay [2], over 38 µM.
On to `COc1ccccc1Cn1c2c(cc(-c3nc(-c4ccc(Cl)cc4)cs3)c1=O)C(=O)CC(C)(C)C2`, for which the inhibition in assay [3] was 61%; in assay [4], 53%.
On the same counts, the results for `COc1ccc(OC)c(-n2c3c(cc(-c4nc(-c5ccc(Cl)cc5)cs4)c2=O)C(=O)CCC3)c1` are 62% and 43%.
Regarding `COc1c(C(=O)O)cccc1-n1c2c(cc(-c3nc(-c4ccc(Cl)cc4)cs3)c1=O)C(=O)CC(C)(C)C2`, in assay [1], the IC50 worked out at 14000 nM. Also, the inhibition was 82% in assay [3] and 65% in assay [4].
On the same counts, the results for `CCc1cccc(CC)c1-n1c(C)c(C(=O)NC)cc(-c2nc(-c3ccc(Cl)cc3)cs2)c1=O` are 1500 nM, 87% and 64%.
Regarding `COc1ccc(OC)c(-n2c3c(cc(-c4ncc(-c5ccc(Cl)cc5)s4)c2=O)C(=O)CC(C)(C)C3)c1`, the results for the IC50 in assay [1] and in assay [2] were over 38000 nM and over 38 µM, respectively.
Regarding `CN(C)c1ccccc1-n1c2c(cc(-c3nc(-c4ccc(Cl)cc4)cs3)c1=O)C(=O)CC(C)(C)C2`, the inhibition amounted to 56% in assay [3] and 57% in assay [4].
On to `COc1cc(C(=O)O)ccc1-n1c2c(cc(-c3nc(-c4ccc(Cl)cc4)cs3)c1=O)C(=O)CC(C)(C)C2`, for which the inhibition in assay [4] turned out to be 43%.
As for `CCc1cccc(CC)c1-n1c(C)c(C(=O)Nc2ccccc2)cc(-c2nc(-c3ccc(Cl)cc3)cs2)c1=O`, the results for the inhibition in assay [3] and in assay [4] were 40% and 69%, respectively.
Take `COc1ccc(OC)c(-n2c3c(cc(-c4ccn(-c5ccccc5)n4)c2=O)C(=O)CC(C)(C)C3)c1`: the IC50 in assay [1] was determined as 3100 nM. Further, the inhibition was 84% in assay [3] and 46% in assay [4].
The matching figures for `COc1cccc(C)c1-n1c2c(cc(-c3nc(-c4ccc(Cl)cc4)cs3)c1=O)C(=O)CC(C)(C)C2`: 2100 nM, 81% and 72%.
`Cc1ccccc1-n1c2c(cc(-c3nc(-c4ccc(Cl)cc4)cs3)c1=O)C(=O)CC(C)(C)C2`: the inhibition in assay [3] was 74%; in assay [4], 64%.
For `CC1(C)CC(=O)c2cc(-c3nc(-c4ccc(Cl)cc4)cs3)c(=O)n(-c3ccccc3N)c2C1`, the inhibition is 57% in assay [3] and 42% in assay [4].
The matching figures for `COc1ccc(OC)c(-n2c3c(cc(-c4cc(-c5ccccc5)[nH]n4)c2=O)C(=O)CC(C)(C)C3)c1`: 47% and 41%.
The matching figures for `CC(C)c1ccccc1-n1c2c(cc(-c3nc(-c4ccc(Cl)cc4)cs3)c1=O)C(=O)CC(C)(C)C2`: 62% and 61%.
The matching figures for `CC1(C)CC(=O)c2cc(-c3nc(-c4ccc(Cl)cc4)cs3)c(=O)n(-c3ccccc3-c3ccccc3)c2C1`: 59% and 67%.
Consider `CCc1cccc(CC)c1-n1c(C)c(C(=O)O)cc(-c2nc(-c3ccc(Cl)cc3)cs2)c1=O`, for which the IC50 in assay [1] was found to be 7200 nM. In addition, the values for the inhibition in assay [3] and in assay [4] were 102% and 72%, respectively.
Turning to `CC(C)n1c2c(cc(-c3nc(-c4ccc(Cl)cc4)cs3)c1=O)C(=O)CC(C)(C)C2`, the inhibition worked out at 31% in assay [3] and 33% in assay [4].
`COc1ccc(OC)c(-n2c(=O)c(-c3nc(-c4ccc(Cl)cc4)cs3)cc3c(O)cccc32)c1`: the figures for the inhibition in assay [3] and in assay [4] were 35% and 36%, respectively.
On the same counts, the results for `COc1ccc(OC)c(-n2c3c(cc(-c4cccc(-c5ccc(Cl)cc5)n4)c2=O)C(=O)CC(C)(C)C3)c1` are 67% and 46%.
On the same counts, the results for `COc1cccc(-n2c3c(cc(-c4nc(-c5ccc(Cl)cc5)cs4)c2=O)C(=O)CC(C)(C)C3)c1OC` are 64% and 35%.
The matching figures for `COc1ccc(OC)c(-n2c3c(cc(-n4ccc(-c5ccccc5)n4)c2=O)C(=O)CC(C)(C)C3)c1`: 71% and 41%.
`COc1ccc(OC)c(-n2c3c(cc(-c4nc(-c5ccc(Cl)cc5)cs4)c2=O)C(=O)CC3)c1`: the inhibition amounted to 38% in assay [3] and 29% in assay [4].
In the case of `CC1(C)CC(=O)c2cc(-c3nc(-c4ccc(Cl)cc4)cs3)c(=O)n(-c3sccc3C#N)c2C1`, the IC50 in assay [1] was 260 nM. Also, the inhibition in assay [3] was 100%; in assay [4] it was 90%.
Consider `CC1(C)CC(=O)c2cc(-c3nc(-c4ccc(Cl)cc4)cs3)c(=O)n(-c3ccccc3O)c2C1`, for which the figures for the inhibition in assay [3] and in assay [4] were 71% and 61%, respectively.
Regarding `COc1ccc(OC)c(-n2c3c(cc(-c4nc(-c5ccc(Cl)cc5)cs4)c2=O)C(=O)NCC3)c1`, the IC50 in assay [1] came to 2300 nM. Also, the inhibition was 84% in assay [3] and 65% in assay [4].
Take `CC1(C)CC(=O)c2cc(-c3nc(-c4ccc(Cl)cc4)cs3)c(=O)n(-c3ccccn3)c2C1`: the figures for the inhibition in assay [3] and in assay [4] were 47% and 39%, respectively.
On the same counts, the results for `CC1(C)CC(=O)c2cc(-c3nc(-c4ccc(Cl)cc4)cs3)c(=O)n(-c3ccccc3F)c2C1` are 65% and 49%.
With `COc1ccc(OC)c(-n2c3c(cc(-c4c[nH]c(-c5ccccc5)n4)c2=O)C(=O)CC(C)(C)C3)c1`, the IC50 in assay [1] was found to be 2100 nM. Also, the inhibition in assay [3] was determined as 75%; in assay [4] it was 39%.
Turning to `COc1ccc(OC)c(-n2c3c(cc(-c4nc(-c5ccc(Cl)cc5)cs4)c2=O)CCC(C)(C)C3)c1`, in assay [1], the IC50 is 3600 nM. Moreover, the inhibition in assay [3] was 87%; in assay [4] it was 64%.
For the compound `CCc1cccc(CC)c1-n1c(C)c(C(=O)N2CCCCC2)cc(-c2nc(-c3ccc(Cl)cc3)cs2)c1=O`, the inhibition in assay [3] came to 51%; in assay [4] it was 65%.
On the same counts, the results for `COc1ccc(OC)c(-n2c3c(cc(-n4cnc(-c5ccccc5)c4)c2=O)C(=O)CC(C)(C)C3)c1` are 59% and 44%.
Regarding `CCc1cccc(CC)c1-n1c(C)c(C(=O)NC(C)C)cc(-c2nc(-c3ccc(Cl)cc3)cs2)c1=O`, the IC50 in assay [1] was found to be 2800 nM. Besides, the inhibition in assay [3] was determined as 47%; in assay [4], 54%.
Take `CC1(C)CC(=O)c2cc(-c3nc(-c4ccc(Cl)cc4)cs3)c(=O)n(-c3ccccc3C(F)(F)F)c2C1`: in assay [1], the IC50 was found to be 270 nM. The inhibition in assay [3] was found to be 96%; in assay [4], 87%.
`COc1ccc(OC)c(-n2c3c(cc(-c4nc(-c5ccccc5)cs4)c2=O)C(=O)CC(C)(C)C3)c1`: the half-maximal inhibitory concentration (IC50) in assay [1] came to 1200 nM. Besides, the inhibition in assay [3] was 77%; in assay [4], 59%.
With `CCc1cccc(CC)c1-n1c(C)c(C(=O)NC(C)(C)C)cc(-c2nc(-c3ccc(Cl)cc3)cs2)c1=O`, the inhibition in assay [3] was determined as 65%; in assay [4], 49%.
For the compound `CC1(C)CC(=O)c2cc(-c3nc(-c4ccc(Cl)cc4)cs3)c(=O)n(-c3ccccc3Oc3ccccc3)c2C1`, the inhibition in assay [3] was 30%; in assay [4], 60%.
On to `COc1ccc(OC)c(-n2c3c(cc(-c4nc(-c5ccc(Cl)cc5)cs4)c2=O)C(=O)CNC3)c1`, for which, in assay [1], the IC50 is 8000 nM. In addition, the values for the inhibition in assay [3] and in assay [4] were 75% and 32%, respectively.
With `CCc1cccc(CC)c1-n1c(C)c(C(=O)NC2CCCCC2)cc(-c2nc(-c3ccc(Cl)cc3)cs2)c1=O`, the IC50 in assay [1] is over 38000 nM. Also, the inhibition in assay [4] was 31%.
Consider `CC1(C)CC(=O)c2cc(-c3nc(-c4ccc(Cl)cc4)cs3)c(=O)n(-c3ccccc3OCc3ccccc3)c2C1`, for which the inhibition in assay [3] was determined as 38%; in assay [4] it was 61%.
